Measured values from ChEMBL document CHEMBL4190372, “Discovery of a Novel Oral Glucocorticoid Receptor Modulator (AZD9567) with Improved Side Effect Profile” (J Med Chem, 2018).
Converted amounts (≈) assume the structure as drawn.

Experiments:
[1] = Cmax in Han-Wistar rat plasma at 0.8 mg/kg, po; type: ADME, organism-based; design: dose 0.8 mg/kg, route oral
[2] = molecular target: T1, Glucocorticoid receptor (Rattus norvegicus, UniProt P06536); assay: Modulation of glucocorticoid receptor in rat whole blood
T1 sequence (P06536 whole entry): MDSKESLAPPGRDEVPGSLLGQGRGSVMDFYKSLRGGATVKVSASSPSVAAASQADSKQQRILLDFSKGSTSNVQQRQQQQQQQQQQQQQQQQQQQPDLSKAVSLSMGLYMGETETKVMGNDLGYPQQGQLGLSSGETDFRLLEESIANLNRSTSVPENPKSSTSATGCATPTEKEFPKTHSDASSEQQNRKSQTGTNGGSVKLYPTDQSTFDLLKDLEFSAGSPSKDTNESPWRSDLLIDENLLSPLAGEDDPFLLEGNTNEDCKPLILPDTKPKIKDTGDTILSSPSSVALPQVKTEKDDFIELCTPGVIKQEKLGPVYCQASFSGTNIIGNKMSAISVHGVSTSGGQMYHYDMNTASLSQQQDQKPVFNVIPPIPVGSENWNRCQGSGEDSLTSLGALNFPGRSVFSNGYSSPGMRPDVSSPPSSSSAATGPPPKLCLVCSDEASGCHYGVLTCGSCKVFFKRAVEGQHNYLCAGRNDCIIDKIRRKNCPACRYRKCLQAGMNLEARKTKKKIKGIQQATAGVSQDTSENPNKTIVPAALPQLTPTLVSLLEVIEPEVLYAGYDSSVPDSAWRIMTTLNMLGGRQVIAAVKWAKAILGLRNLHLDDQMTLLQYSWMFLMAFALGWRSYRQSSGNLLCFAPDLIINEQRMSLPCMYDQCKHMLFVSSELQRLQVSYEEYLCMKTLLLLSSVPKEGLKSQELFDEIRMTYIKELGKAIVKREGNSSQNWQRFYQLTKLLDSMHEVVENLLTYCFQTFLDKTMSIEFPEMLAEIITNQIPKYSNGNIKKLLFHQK

[3] = Clearance in Beagle dog at 0.5 mg/kg, po; type: ADME, organism-based, Canis lupus familiaris; details: in vivo
[4] = molecular target: T2, Progesterone receptor (Homo sapiens, UniProt P06401); assay: Displacement of [3H]progesterone from progesterone receptor in human T47D cells after 1200 mins by scintillation counting method; type: cell-based
T2 sequence (P06401 whole entry): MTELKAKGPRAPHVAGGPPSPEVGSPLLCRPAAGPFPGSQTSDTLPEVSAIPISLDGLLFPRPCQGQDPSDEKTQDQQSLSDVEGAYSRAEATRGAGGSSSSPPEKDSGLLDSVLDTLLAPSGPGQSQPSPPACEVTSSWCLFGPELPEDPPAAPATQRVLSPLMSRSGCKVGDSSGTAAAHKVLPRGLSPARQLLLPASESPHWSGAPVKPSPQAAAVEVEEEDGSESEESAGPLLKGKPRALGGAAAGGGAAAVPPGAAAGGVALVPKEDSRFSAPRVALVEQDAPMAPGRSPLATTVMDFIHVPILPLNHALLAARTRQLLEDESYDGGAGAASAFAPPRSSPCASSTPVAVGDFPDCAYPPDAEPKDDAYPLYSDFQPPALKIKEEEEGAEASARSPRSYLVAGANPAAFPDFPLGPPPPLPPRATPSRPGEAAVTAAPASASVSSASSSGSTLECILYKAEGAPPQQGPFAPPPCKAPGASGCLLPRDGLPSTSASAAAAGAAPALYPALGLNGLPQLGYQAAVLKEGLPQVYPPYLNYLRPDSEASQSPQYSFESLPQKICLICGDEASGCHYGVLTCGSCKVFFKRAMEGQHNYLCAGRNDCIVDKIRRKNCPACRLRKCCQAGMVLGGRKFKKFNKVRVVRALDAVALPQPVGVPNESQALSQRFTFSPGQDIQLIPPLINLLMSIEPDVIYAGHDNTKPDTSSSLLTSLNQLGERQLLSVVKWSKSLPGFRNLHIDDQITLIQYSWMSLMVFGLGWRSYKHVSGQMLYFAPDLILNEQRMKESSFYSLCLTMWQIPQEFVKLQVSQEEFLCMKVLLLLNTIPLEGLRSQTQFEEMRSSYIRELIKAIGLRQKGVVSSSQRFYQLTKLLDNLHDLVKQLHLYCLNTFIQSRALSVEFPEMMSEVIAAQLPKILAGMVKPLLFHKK

[5] = Aqueous solubility of the compound; type: physicochemical; details: aqueous; read-out: solubility
[6] = molecular target: T3, Glucocorticoid receptor (Homo sapiens) (UniProt P04150)
T3 sequence (whole entry): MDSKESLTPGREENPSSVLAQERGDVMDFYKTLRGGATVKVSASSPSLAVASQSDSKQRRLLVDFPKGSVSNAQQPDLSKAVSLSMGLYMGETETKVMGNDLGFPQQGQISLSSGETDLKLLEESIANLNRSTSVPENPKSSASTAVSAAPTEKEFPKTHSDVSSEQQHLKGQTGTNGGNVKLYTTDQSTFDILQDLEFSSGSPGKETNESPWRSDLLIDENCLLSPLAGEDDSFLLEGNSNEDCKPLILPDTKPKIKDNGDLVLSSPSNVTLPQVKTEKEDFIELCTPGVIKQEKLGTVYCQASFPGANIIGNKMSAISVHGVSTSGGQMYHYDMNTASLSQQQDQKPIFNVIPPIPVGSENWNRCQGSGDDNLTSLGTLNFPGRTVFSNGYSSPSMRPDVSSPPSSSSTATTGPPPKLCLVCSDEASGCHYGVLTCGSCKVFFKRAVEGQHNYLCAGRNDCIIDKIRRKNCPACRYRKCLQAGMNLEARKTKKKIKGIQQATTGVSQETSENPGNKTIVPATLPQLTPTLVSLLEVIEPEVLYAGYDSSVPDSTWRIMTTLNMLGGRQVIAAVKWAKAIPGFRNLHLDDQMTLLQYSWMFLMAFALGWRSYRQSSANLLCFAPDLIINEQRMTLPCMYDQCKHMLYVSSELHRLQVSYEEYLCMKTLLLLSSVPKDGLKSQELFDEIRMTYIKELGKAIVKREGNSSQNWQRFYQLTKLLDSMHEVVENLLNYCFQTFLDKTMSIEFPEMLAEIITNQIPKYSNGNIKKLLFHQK
Description: (§1) Transrepression of GR in human whole blood assessed as inhibition of LPS-induced TNF-alpha release preincubated for 45 mins followed by LPS addition after 18 hrs by AlphaLISA method

[7] = molecular target: T4, Glucocorticoid receptor (Homo sapiens, UniProt P04150)
T4 sequence (P04150 whole entry): T3 sequence (whole entry)
Description: as §1

[8] = molecular target: T4, Glucocorticoid receptor; assay: Displacement of fluormone RED from human full length glucocorticoid receptor after 4 hrs by fluorescence polarization assay
[9] = Volume of distribution at steady state in Han-Wistar rat at 0.8 mg/kg, iv; type: ADME, organism-based; details: in vivo, read-out: Vdss
[10] = Tmax in Han-Wistar rat at 2.1 mg/kg, po; type: ADME, organism-based; details: in vivo
[11] = tested on: Rattus norvegicus; assay: Dose normalized AUC (0 to infinity) in Han-Wistar rat at 2.1 mg/kg, po; type: ADME, organism-based; details: in vivo
[12] = Oral bioavailability in Han-Wistar rat at […]; type: ADME, organism-based; details: in vivo
[13] = molecular target: T1, Glucocorticoid receptor; assay: Modulation of glucocorticoid receptor in rat plasma
[14] = molecular target: T4, Glucocorticoid receptor; details: blood
Description: Therapeutic index, ratio of fIC20 for transrepression of GR in cryopreserved human fetal osteoblasts assessed as inhibition of OPG mRNA expression to fIC30 for transrepression of GR in human whole blood assessed as inhibition of LPS-induced TNF-alpha release

[15] = Ratio of drug level in rat blood to plasma; type: ADME, cell-free; details: blood and plasma

CC(C)[C@H](NC(=O)C(C)(F)F)[C@H](Oc1ccc2c(cnn2-c2ccc(=O)n(C)c2)c1)c1ccccc1 [MIZACORAT]
Cmax [1]: 2000 nM | IC50 [2]: 19 nM | CL/F [3]: 3.2 mL/min/kg | IC50 [4]: 5300 nM | solubility [5]: 55 µM (≈ 27.2 µg/mL) | fIC30 [6]: 1.4 nM | IC50 [7]: 680 nM | IC50 [8]: 3.8 nM | Vd [9]: 0.66 L/kg | Tmax [10]: 2 h | AUC/dose [11]: 5.2 µM·h | bioavailability [12]: 52% | IC50 [13]: 30 nM | TI [14]: 0.55 | blood plasma ratio [15]: 0.64
